The values below come from patent publication US9006191B2, “Silencing of polo-like kinase expression using interfering RNA” (Protiva Biotherapeutics, Inc., priority 2007, dated 2015).

Data set [1] has as its system HepG2 cells. As to the kind of experiment: HepG2 cell viability assay. Type of data set: cell-based, human. The conditions noted are these: PLK1424 SNALP 0.31-5 nM, 72 h.
The test system of data set [2] is human PLK-1 mRNA. Briefly: PLK-1 mRNA in Hep3B tumors (QuantiGene bDNA assay). Type of data set: in vivo. To be noted: hepatic Hep3B tumors, single 2 mg/kg IV, 24 h. As for the experimental part: The objectives of this study were as follows: • 1. To determine the level of mRNA silencing in established Hep3B liver tumors following a single IV administration of PLK1424 SNALP. • 2. To confirm the mechanism of mRNA silencing by detecting specific RNA cleavage products using RACE-PCR. • 3. To confirm induction of tumor cell apoptosis by histopathology.
A comparison of the effect of PEG-cDMA and PEG-cDSA 1:57 SNALPs on PLK-1 mRNA silencing was performed using established intrahepatic Hep3B tumors in scid/beige mice. A single 2 mg/kg dose of PLK-1 SNALP containing either PEG-cDMA or PEG-cDSA was administered intravenously. Liver/tumor samples were collected at 24 and 96 hours after SNALP treatment. Control=2 mg/kg Luc-cDMA SNALP at 24 hours.
Measurement of human PLK-1 and GAPDH mRNA in tumor tissues. […] Human PLK-1 and GAPDH mRNA were measured in tumor lystes by the QuantiGene bDNA assay (Panomics) as per the manufacturer's instructions (Quantigene 1.0 Manual). […] Data were expressed as mean PLK-1:GAPDH ratio+/−SD of individual animals. Tumor burden was assessed by homogenizing the complete liver from tumor bearing mice and measuring the total hGAPDH signal (RLU's) within the liver. Values were expressed as hGAPDH RLU/mg total liver.
Subcutaneous tumor models. […] The extent of PLK-1 mRNA knockdown was determined in the Hep3B tumors about 24 hours after SNALP administration.

The test system of data set [3] is IFIT1 mRNA, serum IFNα. To be noted: mouse, in vivo, iv.
Method: (§1) Balb/c mice (n=4 per group) were administered 2.5 mg/kg siRNA or lipid vehicle; serum IFNα (pg/mL) and IFIT1 mRNA (relative to GAPDH) from whole liver lysates were assessed after 4, 8, and 16 h by ELISA and bDNA assay, respectively. […] (b) Serum IFNα and (c) liver IFIT1 mRNA were assessed 4 h after administration (mean+SD, n=4).
(§2) SNALP-formulated Luc (unmodified) and the 2′OMe-modified Luc-U/U, PLK1424-2/A, PLK773-1/B, or KSP2263-U/U siRNA were administered at 2 mg/kg i.v. to Balb/C mice. (A) IFIT1 relative to GAPDH mRNA in liver and spleen was assessed at 4 h by bDNA analysis. […] Serum IFNα was assessed at 6 h by ELISA. […] Values represent mean+SD (n=4).
(§3) IFIT1 mRNA and serum cytokines were assessed 4-6 h after SNALP administration based on the approximate time of peak response for these markers. In these studies, SNALP-formulated native Luc siRNA (Table 6) was used as a positive control for immune stimulation.
(§4) In vivo immune stimulation assays. […] 6-8 week old Balb/C mice were obtained from Harlan and subject to a two week acclimation period prior to use. Mice were administered SNALP formulated siRNA (2 mg/kg) in PBS via standard intravenous injection in the lateral tail vein. Blood was collected by cardiac puncture and processed as plasma for cytokine analysis. Liver and spleen were collected into RNALater (Sigma Co.) for IFIT1 mRNA analysis.
(§5) Measurement of IFIT1 mRNA in mouse tissues. Murine liver and spleen were processed for bDNA assay to quantitate IFIT1 mRNA as described above. The IFIT1 probe set was specific to mouse IFIT1 mRNA (positions 4-499 of NM—008331) and the GAPDH probe set was specific to mouse GAPDH mRNA (positions 9-319 of NM—008084). Data is shown as the ratio of IFIT1 relative light units (RLU) to GAPDH RLU.
(§6) Cytokine ELISA. All cytokines were quantified using sandwich ELISA kits. These were mouse interferon-α (PBL Biomedical; Piscataway, N.J.) and human and mouse IL-6 (BD Biosciences; San Diego, Calif.).
For data set [4], the system named is IFN-α, IFIT1 mRNA. Briefly: In vivo immune stimulation assay in CD1 ICR mice (plasma IFN-α, IFIT1 mRNA). Further details: species or system mouse. To be noted: 1:57 PEG-cDMA SNALP, 3 mg/kg IV, 4 h. As to the method: In vivo immune stimulation assays. Animal studies were performed to test for the immunostimulatory activity of SNALP containing 2′OMe-modified PLK1424 siRNAs. Six-week-old female CD1 ICR mice were used in this study. […] The tolerability of the treatment regime was monitored by animal appearance and behavior.

The test system of data set [5] is human PLK-1 mRNA. As to the kind of experiment: 5′ RACE-PCR in HT29 cells. To be noted: 10 nM, 24 h. Type of data set: cell-based. As for the experimental part: (A) HT29 cells were treated with 10 nM SNALP-formulated PLK1424, Luc siRNA or PBS. RNA was isolated 24 hours after transfection and assayed for the specific PLK-1 mRNA cleavage product by 5′-RACE-PCR. (B) Neuro2a cells were treated with SNALP-formulated KSP2263, PLK773 siRNA or PBS. RNA was isolated 24 hours after transfection and assayed for the specific mouse KSP mRNA cleavage product by 5′-RACE-PCR.
The detection of specific RNA cleavage products generated by RISC-mediated hydrolysis of target mRNA is the definitive marker confirming RNAi as the mechanism of gene silencing (39, 40). Activated RISC cleaves target mRNA precisely between the nucleotides complementary to positions 10 and 11 of the siRNA AS strand generating an mRNA cleavage product that is unique to the siRNA sequence. This can be detected in cells using an appropriately designed 5′-rapid amplification of cDNA ends-PCR method (RACE-PCR). We developed RACE-PCR assays to detect the PLK1424-specific cleavage product of human PLK-1 mRNA and the KSP2263-specific cleavage product of mouse KSP mRNA.
5′ RNA Ligase Mediated Rapid Amplification of cDNA ends (5′ RLM RACE).

Data set [6] relates to IFIT1 mRNA, serum IFNα. Briefly: In vivo immune stimulation assay in Balb/c mice (IFIT1 mRNA, serum IFNα). The conditions noted are these: SNALP-formulated siRNA IV, 4 h.
Method: as §1, §2, §3, §4, §5, §6

As for “PLK1424: siRNA to human PLK-1, SEQ ID NO:1/2 (UU overhang form 211/212) (chain 1 AGAUCACCCUCCUUAAAUA; chain 2 UAUUUAAGGAGGGUGAUCU; further chemistry not given here)”, the cell viability entry in data set [1] is “potent activity”.
On to “PLK1424-2/A: 2′OMe-modified PLK1424 duplex, SEQ ID NO:214/215 (same SEQ IDs as PLK1424 1/3 of Table 11) (chain 1 AGANCACCCNCCUNAAANAUU; chain 2 UAUUUAANGAGGGUGANCUUU; siRNA; 2'-O-methyl modifications at selected positions, key for n not given here)”, for which the “tumor hPLK-1 mRNA, % of levels in PBS-treated mice” value in data set [2] was found to be 45%. The “serum IFNα / serum cytokine response” value in data set [3] is on record as “no measurable IFNα”. Further, in data set [4], the “IFIT1 induction (QG analysis)” value is “no significant IFIT1 induction above that of empty SNALP”. Also, the “PLK-1 mRNA cleavage product by 5′ RACE-PCR” value in data set [5] was “generated the predicted 476 bp 5′ RACE-PCR product”. In data set [6], the “IFIT1 mRNA induction in liver and spleen” value is “no measurable IFNα or increase in IFIT1 mRNA in the liver or spleen”.
